Assay results taken from patent US20190269801A1 (CEDARS-SINAI MEDICAL CENTER, priority 2016, published 2019).
Read-outs that look alike come from different tables or passages of the source.

Experiments:
Renca tumors = conditions: equimolar doses i.p. 3 times a week
Experimental: (§1) Tumor size is measured using a formula (length×width^2)/2.
(§2) Apoptosis was assessed by caspase 3/7 luminescent assay. Cleavage of apoptosis substrates was determined by western blotting. […] Formalin-fixed tumor, liver and kidney sections were stained with H&E and kidney sections were scored semiquantitativey.

ACHN tumors = conditions: equimolar doses i.p. 3 times a week
Experimental: as §1, §2

[1] = test system: ex vivo expanded CTCs from PC patients and LNCaP and C4-2B cells from mouse bone marrow, 3-D spheroids; assay: Viability/apoptosis of PC CTCs and bone marrow-derived LNCaP and C4-2B grown as 3-D spheroids; type: cell-based, human
Experimental: Immortalized PC cell lines (PC3, LNCaP, C4-2, C4-2B, 22Rv1) and 3-D spheroid growth of mouse bone marrow-derived LNCaP and C4-2B and ex vivo expanded CTCs from patients were used. […] Induction of apoptosis was assessed by caspase 3/7 luminescent assay. Growth inhibitory effects were compared between 2-D and 3-D. Senescent luciferase-tagged LNCaP and C4-2B cells from mouse bone marrow regained growth potential when propagated in vitro as 3D spheroids. RPMI medium supplemented with 10% FBS and 1% penicillin/streptomycin was used to grow CTCs in vitro.

Namalwa tumors = assay: Namalwa xenograft growth in mice; type: in vivo, mouse; conditions: equimolar doses i.p. 3 times a week
mouse kidneys [2] = assay: Kidney histopathology in RCC tumor-bearing mice (H&E, semiquantitative score); conditions: i.p. 3 times a week for 4 weeks
Experimental: as §2

mouse kidneys [3] = assay: Kidney histopathology, AKI-associated tubular injury score, Namalwa-bearing mice; conditions: i.p. 3 times a week for 4 weeks
Experimental: FIG. 27 depicts in accordance with various embodiments of the invention, formalin-fixed kidney sections are stained with hematoxylin and esosin and scored using a semiquantitative scale designed to assess AKI-associated tubular injury (tubular epithelial cell loss, necrosis, tubular epithelial simplification, intratubular debris, and casts).
(§3) Induction of apoptosis was assessed using a caspase 3/7 luminescent assay. Cleavage of apoptosis substrates and inhibition of c-myc was determined by western blotting, with images quantified by ImageJ after normalization with GAPDH. […] Formalin-fixed tumor and kidney sections were stained with hematoxylin and esosin and kidney sections scored using a semiquantitative scale designed to assess AKI-associated tubular injury (tubular epithelial cell loss, necrosis, tubular epithelial simplification, intratubular debris, and casts).

Caki-1 cells = assay: Apoptosis by caspase 3/7 luminescent assay and western blot in Caki-1 cells; type: cell-based, human; conditions: 24 hours of drug exposure, 8, 16, and 32 μM
Experimental: 10,000-15,000 cells/well are seeded in 96 white wall well plates in 100 microliter medium/per well for 24 h. […] 100 microliters of Caspase-Glo 3/7 assay is added and luminescence is then read. […] 5,000 cells/well are seeded in 96 white wall well plates in 100 microliter medium/per well for 24 h. […] 100 microliters of Caspase-Glo 3/7 assay is added and luminescence is then read.
as §2

[4] = test system: Namalwa and Raji cell lines; assay: Apoptosis by caspase 3/7 luminescent assay and western blot in BL cell lines; type: cell-based, human; conditions: 24 hours of drug exposure; 8, 16, 32 μM
Experimental: Namalwa cells are cultured in RPMI 1640, 10% fetal bovine serum, 1% PenStrep, and placed in a humidified atmosphere containing 5% CO2 at 37° C. 10,000-15,000 cells/well are seeded in 96 white wall well plates in 100 microliter medium/per well for 24 h. […] 100 microliters of Caspase-Glo 3/7 assay is added and luminescence is then read. Caki-1 cells are cultured in RPMI 1640, 10% fetal bovine serum, 1% PenStrep, and placed in a humidified atmosphere containing 5% CO2 at 37° C. 5,000 cells/well are seeded in 96 white wall well plates in 100 microliter medium/per well for 24 h. […] 100 microliters of Caspase-Glo 3/7 assay is added and luminescence is then read.

[5] = test system: Namalwa cell line-derived xenografts; assay: NIR-dye-cisplatin uptake in Namalwa xenografts vs organs (NIRF microscopy, IVIS); conditions: in vivo
Text: FIG. 28 depicts in accordance with various embodiments of the invention, B-cell lymphoma cell line (Namalwa) subcutaneus tumor xenografts in NCR-NU mice were extracted after the mice were sacrificed. NIR-dye-cisplatin uptake in tumors were imaged by a near-infrared fluorescence (NIRF) microscopy and IVIS Lumina XR Imaging System.

[6] = test system: B-cell lymphoma cell lines Namalwa, Raji, CA46, Ramos, Daudi; assay: Growth and viability of B-cell Burkitt's lymphoma cell lines, MTT, 72 h; type: cell-based, human; conditions: B-cell lymphoma cell lines, 72 h
Experimental: 5,000 cells/well renal cancer cells and 10,000 cells/well lymphoma cells are seeded in 96 well plates in 100 microliter medium/per well for 24 h. […] Renal cancer cells are fixed with 3.7% paraformaldehyde for 15 minutes and are stained with Crystal violet solution (0.5% in 25% methanol) for 30 minutes. After rinsing with water cell layers are dried and decolorized with Sorenson citrate with shaking for 20 minutes. […] Lymphoma cell growth was evaluated using MTT and cells are incubated for 4 hours.
as §3

[7] = test system: ovarian tumor cells OV90 and OVCA433; conditions: in vitro

CC1(C)C(/C=C/C2=C(Cl)C(=C/C=C3/N(CCCCCC(=O)[O][Pt]([NH2])([NH2])([OH])([Cl])[Cl])c4ccccc4C3(C)C)/CCC2)=[N+](CCCCS(=O)(=O)[O-])c2ccccc21 [NIR dye-cisplatin, DZ-1-cisplatin]
tumor growth inhibition (Renca tumors): tumor growth inhibition and apoptotic nuclear lobulation/fragmentation
tumor growth inhibition (Renca tumors; listed as dye-cisplatin): more effective than cisplatin
tumor growth inhibition (ACHN tumors): tumor growth inhibition and apoptotic nuclear lobulation/fragmentation
tumor growth inhibition (ACHN tumors; listed as dye-cisplatin): more effective than cisplatin
sensitivity of cells grown as 3-D spheroids [1]: extremely sensitive
tumor growth inhibition (Namalwa tumors): more effective than cisplatin
kidney toxicity (histopathology) (mouse kidneys [2]): preserved the integrity and normal morphology of mouse kidneys
kidney toxicity (histopathology) (mouse kidneys [3]): preserves the integrity and normal morphology of mouse kidneys
induction of apoptosis (caspase 3/7, apoptosis related markers) (Caki-1 cells): induced apoptosis
induction of apoptosis (caspase 3/7, apoptosis related markers) (Caki-1 cells; listed as dye-cisplatin): induces apoptosis
induction of apoptosis (caspase 3/7; caspase 9, caspase 3 and PARP) [4]: induces apoptosis
accumulation in cell line-derived xenografts relative to mouse kidneys and lungs [5]: 7-15 times
antitumor effect (in words) [6]: even more potent antitumor effect
sensitivity of cell growth relative to unconjugated drug [7]: more sensitive
